Holding throughout (type): functional
Test [1] in a line: Antiplatelet activity in Mus musculus Laca (mouse) platelet assessed as bleeding time at 60 mg/kg, po after 1 hr by tail transaction bleeding test (reference value: 3.2 +/- 0.218 min).
Test [2] in a line: Antiplatelet activity in Mus musculus Laca (mouse) platelet assessed as bleeding time at 7.5 mg/kg, po after 1 hr by tail transaction bleeding test (reference value: 3.2 +/- 0.218 min).
Test [3] in a line: Antiplatelet activity in Mus musculus Laca (mouse) platelet assessed as bleeding time at 15 mg/kg, po after 1 hr by tail transaction bleeding test (reference value: 3.2 +/- 0.218 min).
Test [4] is described as follows: Antiplatelet activity in Mus musculus Laca (mouse) platelet assessed as bleeding time at 30 mg/kg, po after 1 hr by tail transaction bleeding test (reference value: 3.2 +/- 0.218 min).
Test [5] can be described thus: Antiplatelet activity in Mus musculus Laca (mouse) platelet assessed as bleeding time at 15 mg/kg, po after 1 hr by tail transaction bleeding test relative to aspirin.

In the case of `COc1ccc(CNc2ccc(C3=NNC(=O)CC3)cc2)cc1OC`, the Time is recorded as 7.1 min in test [1], 4.2 min in test [2], 5.6 min in test [3] and 6.5 min in test [4].

`COc1cc(CNc2ccc(C3=NNC(=O)CC3)cc2)cc(OC)c1OC`: the Time is listed as 6.5 min in test [1], 4.4 min in test [2], 5.2 min in test [3] and 6.1 min in test [4].

As for `O=C1CCC(c2ccc(NCc3ccccc3O)cc2)=NN1`, the Time is on record as 9.2 min in test [1], 4.4 min in test [2], 7.4 min in test [3] and 8.5 min in test [4].

`COc1cc(CNc2ccc(C3=NNC(=O)CC3)cc2)ccc1O`: the Time in test [1] is 7.3 min; in test [2] it was 4.1 min; in test [3], 5.2 min; in test [4], 6.1 min.

`O=C1CCC(c2ccc(NCc3ccc(F)cc3)cc2)=NN1`: the Time in test [1] is 7 min; in test [2], 3.8 min; in test [3], 4.9 min; in test [4], 6.2 min.

With `O=C1CCC(c2ccc(NCc3c[nH]c4ccccc34)cc2)=NN1`, the Time in test [1] amounted to 9.7 min; in test [2], 5.5 min; in test [3], 8.3 min; in test [4], 9.2 min. The “fold change (FC)” value in test [5] was more than 2.

With `O=C1CCC(c2ccc(NCc3ccncc3)cc2)=NN1`, the Time is recorded as 7 min in test [1], 4.3 min in test [2], 5.3 min in test [3] and 6.2 min in test [4].

As for `O=C1CCC(c2ccc(NCc3cccnc3)cc2)=NN1`, the Time in test [1] was determined as 6.6 min; in test [2], 4.1 min; in test [3], 5.5 min; in test [4], 6.2 min.

On to `CC(=O)Oc1ccccc1C(=O)O` [ASPIRIN], for which the Time in test [1] stood at 6.6 min; in test [2] it was 4.2 min; in test [3], 5.3 min; in test [4], 6.1 min.

For the origin of these results see ChEMBL document CHEMBL3045234, “Synthesis of new pyridazinone derivatives as platelet aggregation inhibitors” (2010).
